Tested on: PBMCs infected with VSV-G pseudotyped HIV virus (VSV-G/pNLG1-P2A-ΔEnv)
Assay: cells
Format: cell-based, human
Conditions: Homo sapiens, PBMC, read-out: EC50 (HIV-TACK cell kill activity)

CC(C)C#CC1(C(F)(F)F)NC(=O)Nc2cc(Cn3cnccc3=O)ccc21 (racemic) [Example 77, (S)-4-(3-methylbut-1-yn-1-yl)-7-((6-oxopyrimidin-1(6H)-yl)methyl)-4-(trifluoromethyl)-3,4-dihydroquinazolin-2(1H)-one AND (R)-4-(3-methylbut-1-yn-1-yl)-7-((6-oxopyrimidin-1(6H)-yl)methyl)-4-(trifluoromethyl)-3,4-dihydroquinazolin-2(1H)-one]
EC50: 87 nM

CN1C(=O)Nc2cc(Cn3cnccc3=O)c(Cl)cc2C1(C#CC1CC1)C(F)(F)F (racemic) [Example 78, (S)-6-chloro-4-(cyclopropylethynyl)-3-methyl-7-((6-oxopyrimidin-1(6H)-yl)methyl)-4-(trifluoromethyl)-3,4-dihydroquinazolin-2(1H)-one AND (R)-6-chloro-4-(cyclopropylethynyl)-3-methyl-7-((6-oxopyrimidin-1(6H)-yl)methyl)-4-(trifluoromethyl)-3,4-dihydroquinazolin-2(1H)-one]
EC50: 38 nM

CC(C)CC#CC1(C(F)(F)F)NC(=O)Nc2cc(Cn3cnccc3=O)ccc21 (racemic) [Example 79, (S)-4-(4-methylpent-1-yn-1-yl)-7-((6-oxopyrimidin-1(6H)-yl)methyl)-4-(trifluoromethyl)-3,4-dihydroquinazolin-2(1H)-one AND (R)-4-(4-methylpent-1-yn-1-yl)-7-((6-oxopyrimidin-1(6H)-yl)methyl)-4-(trifluoromethyl)-3,4-dihydroquinazolin-2(1H)-one]
EC50: 230 nM

N#Cc1cc2c(cc1Cn1cnccc1=O)NC(=O)NC2(C#CC1CC1)C(F)(F)F (single isomer, unassigned) [Example 75]
EC50: 221 nM

CN1C(=O)Nc2cc(Cn3ccnc(N)c3=O)c(Cl)cc2C1(C#CC1CC1)C(F)(F)F (single isomer, unassigned) [Example 76]
EC50: 42 nM

O=C1Nc2cc(Cn3cnccc3=O)c(F)cc2[C@@](C#CC2CC2)(C(F)(F)F)N1 [Example 1, (S)-4-(cyclopropylethynyl)-6-fluoro-7-((6-oxopyrimidin-1(6H)-yl)methyl)-4-(trifluoromethyl)-3,4-dihydroquinazolin-2(1H)-one]
EC50: 22 nM

Nc1nccn(Cc2cc3c(cc2F)[C@@](C#CC2CC2)(C(F)(F)F)NC(=O)N3)c1=O [Example 2, (S)-7-((3-amino-2-oxopyrazin-1(2H)-yl)methyl)-4-(cyclopropylethynyl)-6-fluoro-4-(trifluoromethyl)-3,4-dihydroquinazolin-2(1H)-one]
EC50: 15 nM

Cc1cc(=O)n(Cc2cc3c(cc2Cl)[C@@](C#CC2CC2)(C(F)(F)F)NC(=O)N3)cn1 [Example 3, (S)-6-chloro-4-(cyclopropylethynyl)-7-((4-methyl-6-oxopyrimidin-1(6H)-yl)methyl)-4-(trifluoromethyl)-3,4-dihydroquinazolin-2(1H)-one]
EC50: 26 nM

CC(F)(F)[C@@]1(C#CC2CC2)NC(=O)Nc2cc(Cn3cnccc3=O)c(F)cc21 [Example 4, (S)-4-(cyclopropylethynyl)-4-(1,1-difluoroethyl)-6-fluoro-7-((6-oxopyrimidin-1(6H)-yl)methyl)-3,4-dihydroquinazolin-2(1H)-one]
EC50: 16 nM

Nc1cncn(Cc2cc3c(cc2F)[C@@](C#CC2CC2)(C(F)(F)F)NC(=O)N3)c1=O [Example 5, (S)-7-((5-amino-6-oxopyrimidin-1(6H)-yl)methyl)-4-(cyclopropylethynyl)-6-fluoro-4-(trifluoromethyl)-3,4-dihydroquinazolin-2(1H)-one]
EC50: 35 nM

O=C1Nc2cc(Cn3cnc(C(F)F)cc3=O)c(F)cc2[C@@](C#CC2CC2)(C(F)(F)F)N1 [Example 6, (S)-4-(cyclopropylethynyl)-7-((4-(difluoromethyl)-6-oxopyrimidin-1(6H)-yl)methyl)-6-fluoro-4-(trifluoromethyl)-3,4-dihydroquinazolin-2(1H)-one]
EC50: 38 nM

COCc1cc(=O)n(Cc2cc3c(cc2F)[C@@](C#CC2CC2)(C(F)(F)F)NC(=O)N3)cn1 [Example 7, (S)-4-(cyclopropylethynyl)-6-fluoro-7-((4-(methoxymethyl)-6-oxopyrimidin-1(6H)-yl)methyl)-4-(trifluoromethyl)-3,4-dihydroquinazolin-2(1H)-one]
EC50: 44 nM

Nc1c(Cl)ncn(Cc2cc3c(cc2F)[C@@](C#CC2CC2)(C(F)(F)F)NC(=O)N3)c1=O [Example 8, (S)-7-((5-amino-4-chloro-6-oxopyrimidin-1(6H)-yl)methyl)-4-(cyclopropylethynyl)-6-fluoro-4-(trifluoromethyl)-3,4-dihydroquinazolin-2(1H)-one]
EC50: 46 nM

Nc1nccn(Cc2ccc3c(c2)NC(=O)N[C@]3(C#CC2CC2)C(F)(F)F)c1=O [Example 9, (S)-7-((3-amino-2-oxopyrazin-1(2H)-yl)methyl)-4-(cyclopropylethynyl)-4-(trifluoromethyl)-3,4-dihydroquinazolin-2(1H)-one]
EC50: 30 nM

Nc1c(Cl)ncn(Cc2cc3c(cc2Cl)[C@@](C#CC2CC2)(C(F)(F)F)NC(=O)N3)c1=O [Example 11, (S)-7-((5-amino-4-chloro-6-oxopyrimidin-1(6H)-yl)methyl)-6-chloro-4-(cyclopropylethynyl)-4-(trifluoromethyl)-3,4-dihydroquinazolin-2(1H)-one]
EC50: 33 nM

O=C1Nc2cc(Cn3cnc(Cl)cc3=O)c(Cl)cc2[C@@](C#CC2CC2)(C(F)(F)F)N1 [Example 12, (S)-6-chloro-7-((4-chloro-6-oxopyrimidin-1(6H)-yl)methyl)-4-(cyclopropylethynyl)-4-(trifluoromethyl)-3,4-dihydroquinazolin-2(1H)-one]
EC50: 33 nM

Nc1cc(=O)n(Cc2cc3c(cc2Cl)[C@@](C#CC2CC2)(C(F)(F)F)NC(=O)N3)cn1 [Example 13, (S)-7-((4-amino-6-oxopyrimidin-1(6H)-yl)methyl)-6-chloro-4-(cyclopropylethynyl)-4-(trifluoromethyl)-3,4-dihydroquinazolin-2(1H)-one]
EC50: 46 nM

O=C1Nc2cc(Cn3cnccc3=O)c(Br)cc2[C@@](C#CC2CC2)(C(F)(F)F)N1 [Example 14, (S)-6-bromo-4-(cyclopropylethynyl)-7-((6-oxopyrimidin-1(6H)-yl)methyl)-4-(trifluoromethyl)-3,4-dihydroquinazolin-2(1H)-one]
EC50: 31 nM

COCc1cc(=O)n(Cc2ccc3c(c2)NC(=O)N[C@]3(C#CC2CC2)C(C)(F)F)cn1 [Example 15, (S)-4-(cyclopropylethynyl)-4-(1,1-difluoroethyl)-7-((4-(methoxymethyl)-6-oxopyrimidin-1(6H)-yl)methyl)-3,4-dihydroquinazolin-2(1H)-one]
EC50: 65 nM

Nc1nc(Br)cn(Cc2cc3c(cc2F)[C@@](C#CC2CC2)(C(F)(F)F)NC(=O)N3)c1=O [Example 16, (S)-7-((3-amino-5-bromo-2-oxopyrazin-1(2H)-yl)methyl)-4-(cyclopropylethynyl)-6-fluoro-4-(trifluoromethyl)-3,4-dihydroquinazolin-2(1H)-one]
EC50: 38 nM

CC(F)(F)[C@@]1(C#CC2CC2)NC(=O)Nc2cc(Cn3ccnc(N)c3=O)c(Cl)cc21 [Example 17, (S)-7-((3-amino-2-oxopyrazin-1(2H)-yl)methyl)-6-chloro-4-(cyclopropylethynyl)-4-(1,1-difluoroethyl)-3,4-dihydroquinazolin-2(1H)-one]
EC50: 17 nM

Cc1cc(=O)n(Cc2cc3c(cc2Cl)[C@@](C#CC2CC2)(C(C)(F)F)NC(=O)N3)cn1 [Example 18, (S)-6-chloro-4-(cyclopropylethynyl)-4-(1,1-difluoroethyl)-7-((4-methyl-6-oxopyrimidin-1(6H)-yl)methyl)-3,4-dihydroquinazolin-2(1H)-one]
EC50: 15 nM

COCc1cc(=O)n(Cc2cc3c(cc2Cl)[C@@](C#CC2CC2)(C(C)(F)F)NC(=O)N3)cn1 [Example 19, (S)-6-chloro-4-(cyclopropylethynyl)-4-(1,1-difluoroethyl)-7-((4-(methoxymethyl)-6-oxopyrimidin-1(6H)-yl)methyl)-3,4-dihydroquinazolin-2(1H)-one]
EC50: 14 nM

Nc1nccn(Cc2c(F)cc3c(c2F)NC(=O)N[C@]3(C#CC2CC2)C(F)(F)F)c1=O [Example 20, (S)-7-((3-amino-2-oxopyrazin-1(2H)-yl)methyl)-4-(cyclopropylethynyl)-6,8-difluoro-4-(trifluoromethyl)-3,4-dihydroquinazolin-2(1H)-one]
EC50: 47 nM

O=C1Nc2cc(Cn3cnccc3=O)ccc2[C@@](C#CC2CC2)(C(F)(F)F)N1 [Example 21, (S)-4-(cyclopropylethynyl)-7-((6-oxopyrimidin-1(6H)-yl)methyl)-4-(trifluoromethyl)-3,4-dihydroquinazolin-2(1H)-one]
EC50: 181 nM

O=C1Nc2cc(Cn3cnc(C4CC4)cc3=O)ccc2[C@@](C#CC2CC2)(C(F)(F)F)N1 [Example 22, (S)-7-((4-cyclopropyl-6-oxopyrimidin-1(6H)-yl)methyl)-4-(cyclopropylethynyl)-4-(trifluoromethyl)-3,4-dihydroquinazolin-2(1H)-one]
EC50: 288 nM

O=C1Nc2cc(Cn3ncccc3=O)ccc2[C@@](C#CC2CC2)(C(F)(F)F)N1 [Example 23, (S)-4-(cyclopropylethynyl)-7-((6-oxopyridazin-1(6H)-yl)methyl)-4-(trifluoromethyl)-3,4-dihydroquinazolin-2(1H)-one]
EC50: 250 nM

Nc1ccnn(Cc2ccc3c(c2)NC(=O)N[C@]3(C#CC2CC2)C(F)(F)F)c1=O [Example 24, (S)-7-((5-amino-6-oxopyridazin-1(6H)-yl)methyl)-4-(cyclopropylethynyl)-4-(trifluoromethyl)-3,4-dihydroquinazolin-2(1H)-one]
EC50: 210 nM

O=C1Nc2cc(Cn3cnc(C(F)(F)F)cc3=O)ccc2[C@@](C#CC2CC2)(C(F)(F)F)N1 [Example 25, (S)-4-(cyclopropylethynyl)-7-((6-oxo-4-(trifluoromethyl)pyrimidin-1(6H)-yl)methyl)-4-(trifluoromethyl)-3,4-dihydroquinazolin-2(1H)-one]
EC50: 194 nM

Nc1ccnn(Cc2cc3c(cc2F)[C@@](C#CC2CC2)(C(F)(F)F)NC(=O)N3)c1=O [Example 26, (S)-7-((5-amino-6-oxopyridazin-1(6H)-yl)methyl)-4-(cyclopropylethynyl)-6-fluoro-4-(trifluoromethyl)-3,4-dihydroquinazolin-2(1H)-one]
EC50: 226 nM
